Read-outs that look alike come from different tables or passages of the source.

The subject of one assay is EC1007 KPC-3. Nature of the assay: Dose titration biapenem potentiation assay (MPC1). The class given is cell-based, Escherichia coli. The note with it: biapenem 1 μg/mL. In outline:
(§1)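 Growth of carbapenemase-expressing strains measured with biapenem held at a sub-inhibitory 1 μg/mL; BLI compounds titrated from a top concentration of 40 μg/mL. MPC1 is the inhibitor concentration that restores growth inhibition by biapenem.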

A further assay concerns ECL1004 NMC-A. Nature of the assay: Dose titration biapenem potentiation assay (MPC1). The class given is cell-based, Enterobacter cloacae. Conditions: biapenem 1 μg/mL. The essentials: as §1
Assay [1] deals with T1, KPC-2 (Klebsiella pneumoniae KP1004 lysate) (Klebsiella pneumoniae, UniProt Q9F663).
T1 construct: Lysates were prepared from bacteria expressing various β-lactamases as a source of enzymes; endogenous in cells; host or cells: Klebsiella pneumoniae strains KP1004 and KP1008 (freeze-thaw lysate supernatants)
Put plainly: Inhibition of biapenem hydrolysis by bacterial lysate. The class given is biochemical. The protocol: (§2) The activity of β-lactamase inhibitors to inhibit hydrolysis of biapenem was studied. Lysates were prepared from bacteria expressing various β-lactamases as a source of enzymes. Bacterial lysates were prepared as follows. A single colony from the fresh overnight plate was transferred to 5 mL of LB broth and grown to OD600=0.6-0.8. Next, this culture was transferred to 500 mL of LB and grown to OD600=0.7-0.9. Cells were pelleted by centrifugation at 5000 RPM (JA-14 rotor) for 15 minutes at room temperature. The pellet was resuspended in 10 mL of PBS. Five freeze-thaw cycles by putting cells at −20° C. and thawing them at the room temperature were next applied. After the last thaw step cells were spun down at 18K for 30 minutes and the supernatant was collected. This lysate was stored at −20° C.
(§3) Next, the activity of bacterial lysates was optimized for biapenem cleavage as follows. 50 μl of buffer A (50 mM Sodium Phosphate pH=7; 0.5% glucose, 1 mM MgCl2) was added to each well of 96-well UV-transparent plate. 50 μl of lysate was titrated vertically in 96-well plate column to generate 2-fold lysate dilutions. 100 μl of buffer A was added to each well, placed in plate reader at 37° C. and incubated for 15 minutes. 50 μl of 50 μg/mL solutions of biapenem in buffer A (pre-incubated at 37° C. for 15 minutes) were added to each well. Hydrolysis of biapenem was measured at 296 nm. This experiment was used to determine the optimal lysate dilution which produced a linear curve of relative UV signal that decreased to approximately OD=0.3-0.5 over 1 hour.
(§4) Finally, the potency of cyclic boronic acid derivative to inhibit the cleavage of biapenem cleavage by bacterial lysates was determined. 100 μl of buffer A (50 mM Sodium Phosphate pH=7; 0.5% glucose, 1 mM MgCl2) was added to each well of 96-well UV-transparent plate. 50 μl of 6× cyclic boronic acid derivative solution in buffer A was titrated vertically in 96-well plate column to generate 3-fold dilutions. 50 μl of diluted lysate in buffer A (optimal dilution is determined in experiment above) was added, and the plate was incubated in the plate reader at 37° C. for 15 minutes. 50 μl of 50 μg/mL solution of biapenem in buffer A (pre-incubated at 37° C. for 15 minutes) were next added to each well and hydrolysis of biapenem was recorded at 296 nm. EC50 of inhibition was determined by plotting the rate of biapenem cleavage vs. cyclic boronic acid derivative concentration.

In assay [2] the target is T2, KPC-2 (Klebsiella pneumoniae KP1008 lysate) (Klebsiella pneumoniae, UniProt Q9F663).
T2 construct: Lysates were prepared from bacteria expressing various β-lactamases as a source of enzymes; endogenous in cells; host or cells: Klebsiella pneumoniae strains KP1004 and KP1008 (freeze-thaw lysate supernatants)
Described as above. It counts as biochemical. Here is the method: as §2, §3, §4

The target of assay [3] is T3, SME-2 (Serratia marcescens SM1000 lysate) (Serratia marcescens, UniProt P52682).
T3 construct: Lysates were prepared from bacteria expressing various β-lactamases as a source of enzymes
The assay is described as above. The class given is biochemical. The protocol: as §2, §3, §4

The target of assay [4] is T4, KPC-3 (Escherichia coli EC1007 lysate) (Klebsiella pneumoniae, UniProt Q9F663, H272Y).
T4 construct: Lysates were prepared from bacteria expressing various β-lactamases as a source of enzymes; endogenous in cells; host or cells: Escherichia coli strain EC1007 (freeze-thaw lysate supernatant)
The description is as above. The class given is biochemical. The protocol: as §2, §3, §4

Assay [5] has as its system Acinetobacter baumannii AB1057 (OXA-58). Nature of the assay: Checkerboard assay, biapenem potentiation (MPC8). The class given is cell-based. Conditions: concentration to reduce biapenem MIC 8-fold. Here is the method:
(§5) The potency and spectrum of β-lactamase inhibitors was determined by assessing their antibiotic potentiation activity.
(§6) The potentiation effect is observed by the reduction of the minimum inhibitory concentration of β-lactam antibiotics in the presence of β-lactamase inhibitors (BLIs). […] Methods for Dilution of Antimicrobial Susceptibility Tests for Bacteria That Grow Aerobically—Eighth Edition; Approved Standard. CLSI Document M07-A8, 2009). In this assay, multiple dilutions of two drugs, namely BLI and β-lactam (biapenem), are being tested, alone and in combination, at concentrations equal to, above and below their respective minimal inhibitory concentrations (MICs). BLIs are solubilized in 10% DMSO at 10 mg/mL. Stock solutions are further diluted, according to the needs of a particular assay, in Mueller Hinton Broth (MHB). Stock solution can be stored at −80° C.
(§7) The checkerboard (CB) assay is performed in microtiter plates. Biapenem is diluted in the x axis, each column containing a single concentration of antibiotic. BLIs are diluted in the y axis, each row containing an equal concentration of BLI. The result of these manipulations is that each well of the microtiter plate contains a unique combination of concentrations of the two agents. The assay is performed in MHB with a final bacterial inoculum of 5×10^5 CFU/mL (from an early-log phase culture). Microtiter plates are incubated during 20 h at 35° C. and are read using a microtiter plate reader (Molecular Devices) at 650 nm as well as visual observation using a microtiter plate reading mirror.
(§8) Biapenem is a carbapenem β-lactam; only selected β-lactamases confer resistance to this class of antibiotics. Among them are serine carbapemenases that belong to class A and class D. Biapenem potentiation is studied in strains expressing various carbapenemases from these classes using CB assays. […] Cyclic boronic acid derivatives were capable of reducing biapenem MICs up to 1000-fold (Table 3).

Assay [6] has as its system Acinetobacter baumannii AB1054 (OXA-23). Nature of the assay: Checkerboard assay, biapenem potentiation (MPC8). It counts as cell-based. Conditions: concentration to reduce biapenem MIC 8-fold. The protocol: as §5, §6, §7, §8
Assay [7] relates to Klebsiella pneumoniae KP1004 (KPC-2). Nature of the assay: Checkerboard assay, biapenem potentiation (MPC8). It counts as cell-based. The note with it: concentration to reduce biapenem MIC 8-fold. The protocol: as §5, §6, §7, §8
A further assay relates to KP1008 KPC-2. Nature of the assay: Dose titration biapenem potentiation assay (MPC1). Conditions: biapenem 1 μg/mL. The class given is cell-based, Klebsiella pneumoniae.
For a further assay, the system named is KP1004 KPC-2. Nature of the assay: Dose titration biapenem potentiation assay (MPC1). The class given is cell-based, Klebsiella pneumoniae. Conditions: biapenem 1 μg/mL.
[8] abbreviates: SM1000 SME-2 lysate; read-out: IC50 (μg/mL) of inhibition of biapenem hydrolysis.
Where [9] appears, read: EC1007 KPC-3 lysate, read-out: IC50 (μg/mL) of inhibition of biapenem hydrolysis.

T4 sequence (Q9F663 25-293 H272Y): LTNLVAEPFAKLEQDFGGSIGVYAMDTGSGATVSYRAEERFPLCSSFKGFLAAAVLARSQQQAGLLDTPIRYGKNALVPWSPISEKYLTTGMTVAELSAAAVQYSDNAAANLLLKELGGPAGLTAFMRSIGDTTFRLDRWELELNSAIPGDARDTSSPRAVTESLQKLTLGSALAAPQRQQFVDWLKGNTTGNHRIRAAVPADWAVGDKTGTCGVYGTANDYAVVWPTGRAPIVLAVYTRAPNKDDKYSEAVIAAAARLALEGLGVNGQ
T2 sequence (Q9F663 25-293 limits assumed): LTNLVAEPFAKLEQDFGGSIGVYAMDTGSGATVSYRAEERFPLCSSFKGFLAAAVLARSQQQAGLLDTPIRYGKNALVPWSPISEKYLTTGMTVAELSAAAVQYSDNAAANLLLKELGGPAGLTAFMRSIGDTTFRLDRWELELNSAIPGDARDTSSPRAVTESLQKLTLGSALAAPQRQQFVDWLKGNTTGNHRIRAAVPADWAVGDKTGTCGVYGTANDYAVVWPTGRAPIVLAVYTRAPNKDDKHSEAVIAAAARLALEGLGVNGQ
T1 sequence (Q9F663 25-293 limits assumed): as above
T3 sequence (P52682 28-294 limits assumed): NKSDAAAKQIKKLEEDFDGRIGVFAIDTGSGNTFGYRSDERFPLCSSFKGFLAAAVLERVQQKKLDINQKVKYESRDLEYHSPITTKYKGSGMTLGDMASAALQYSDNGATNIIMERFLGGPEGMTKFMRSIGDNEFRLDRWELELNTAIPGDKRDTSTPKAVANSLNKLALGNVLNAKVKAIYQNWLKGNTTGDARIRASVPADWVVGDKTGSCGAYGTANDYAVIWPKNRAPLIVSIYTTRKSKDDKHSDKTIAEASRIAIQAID

As to `O=C(O)CC1CC[C@H](NC(=O)C2CC2)B(O)O1` (stereo partly drawn) [Compound 4, 2-((3R)-3-(cyclopropanecarboxamido)-2-hydroxy-1,2-oxaborinan-6-yl)acetic acid], the “BPM MPC1 EC1007 KPC-3” value in the assay with EC1007 KPC-3 is given as “X (X = MPC1 of less than 1 μg/mL.)”. For the same molecule, the “BPM MPC1 ECL1004 NMC-A” value in the assay on ECL1004 NMC-A is “X (X = MPC1 of less than 1 μg/mL.)”. For the same molecule, the IC50 was 0.415 to 4.15 µM in assay [1], over 4.15 µM in assay [2], 0.415 to 4.15 µM in assay [3] (setting [8]) and 0.415 to 4.15 µM in assay [4] (setting [9]). Besides, the figures for the MPC8 result in assay [5], in assay [6] and in assay [7] were “Z (Z = MPC8 of greater than 1 μg/mL.)”, “Z (Z = MPC8 of greater than 1 μg/mL.)” and “X (X = MPC8 of less than 0.16 μg/mL.)”, respectively. The “BPM MPC1 KP1008 KPC-2” value in the assay with KP1008 KPC-2 was “X (X = MPC1 of less than 1 μg/mL.)”. Moreover, the “BPM MPC1 KP1004 KPC-2” value with KP1004 KPC-2 was “X (X = MPC1 of less than 1 μg/mL.)”.
As for `O=C(O)C[C@@H]1CC[C@H](NC(=O)Cc2ccccc2)B(O)O1` [Compound 6, 2-((3R,6S)-2-hydroxy-3-(2-phenylacetamido)-1,2-oxaborinan-6-yl)acetic acid], the “BPM MPC1 EC1007 KPC-3” value with EC1007 KPC-3 was “X (X = MPC1 of less than 1 μg/mL.)”. The “BPM MPC1 ECL1004 NMC-A” value in the assay with ECL1004 NMC-A was “X (X = MPC1 of less than 1 μg/mL.)”. Further, the IC50 in assay [1] was 0.344 to 3.44 µM; in assay [2], 0.344 to 3.44 µM; in [3] (setting [8]), 0.344 to 3.44 µM; in assay [4] (setting [9]), under 0.344 µM. In addition, the figures for the MPC8 entry in assay [5], in assay [6] and in assay [7] were “Z (Z = MPC8 of greater than 1 μg/mL.)”, “X (X = MPC8 of less than 0.16 μg/mL.)” and “X (X = MPC8 of less than 0.16 μg/mL.)”, respectively. The “BPM MPC1 KP1008 KPC-2” value in the assay on KP1008 KPC-2 is “X (X = MPC1 of less than 1 μg/mL.)”. Also, the “BPM MPC1 KP1004 KPC-2” value in the assay with KP1004 KPC-2 is “X (X = MPC1 of less than 1 μg/mL.)”.
In the case of `C[C@]1(Cn2ccnn2)[C@H](C(=O)O)N2C(=O)C[C@H]2S1(=O)=O` [Tazobactam, reference compound], the “BPM MPC1 EC1007 KPC-3” value in the assay on EC1007 KPC-3 (numeric value) was 5 µg/mL. The “BPM MPC1 ECL1004 NMC-A” value with ECL1004 NMC-A (numeric value) is 0.6 µg/mL. Further, the IC50 in assay [1] is over 3.33 µM; in assay [2] it was over 3.33 µM; in [3] (read-out: IC50 (μg/mL) of inhibition of biapenem hydrolysis; SM1000 SME-2 lysate) it was 0.333 to 3.33 µM; in [4], over 3.33 µM. Further, the “BPM MPC1 KP1008 KPC-2” value in the assay on KP1008 KPC-2 (numeric value) is 0.3 µg/mL. The “BPM MPC1 KP1004 KPC-2” value in the assay on KP1004 KPC-2 (numeric value) was found to be 40 µg/mL.

Values taken from patent publication US20150119363A1, “METHODS OF TREATING BACTERIAL INFECTIONS” (Rampex Pharmaceuticals, Inc., priority 2012, published 2015).
